System: HSR harboring BRAF in M249 cells
Assay: Metaphase DNA-FISH tracking emergence of BRAF HSR
Assay type: cell-based, human
Details: M249, day 31; DNA-PKi and/or PARPi given in combination with BRAFi+MEKi; FIG. 5G
Source text: FIGS. 5A-5H. Resistance-driver ecDNAs and HSRs dynamically track with resistance and DNA-PKi prevents size-expansion of ecDNAs and CGRs early on MAPKi treatment. FIGS. 5A to 5C, Metaphase DNA-FISH of paired parental and acquired resistant BRAF^V600MUT (5A and 5B) or NRAS^Q61MUT (5C) cell lines without or with drug withdrawal showing ecDNA- or HSR-amplicons harboring BRAF, RAF1 or NRAS. Left, representative images; right, quantifications per cell. Ruler, 15 μm. P values (Unpaired two-tailed Student's t-test): *, p<0.05; **, p<0.01; ***, p<0.001. FIGS. 5D to 5F: Three- (upper) and six-(lower) day MTT assay of indicated cell lines treated with graded concentrations of BRAFi+MEKi (5D and 5E) or MEKi (5F). Cell viability was normalized to respective DMSO/vehicle group. Inner brackets, comparisons between acquired-resistant sub-lines without and with drug withdrawal. Outer brackets, comparisons between acquired-resistant sub-lines and their isogenic parental cell lines. […] FIG. 5G: Representative images (left) and quantification (right) of metaphase DNA-FISH showing HSR harboring BRAF in M249 cells treated with vehicle or BRAFi+MEKi, with or without NU7026 and/or ABT888 for 31 days. […] FIG. 5H: Average total genomic spans of treatment-specific ecDNAs+CGRs in M229 and M245 cell lines (background ecDNA+CGR spans detected in vehicle-treated cells were filtered). […]

| Compound | BRAF HSRs early on treatment |
| --- | --- |
| C[C@]1(c2nc3c(C(N)=O)cccc3[nH]2)CCCN1 [ABT888, veliparib] | suppression |
| O=c1cc(N2CCOCC2)oc2c1ccc1ccccc12 [NU7026] | suppression |
